According to ChEMBL document CHEMBL4725225, “Exploratory studies on CA-15L, an anti-HIV active HIV-1 capsid fragment” (Bioorg Med Chem, 2020):

How the values were obtained:
[1] = tested on: Human immunodeficiency virus 1; test: Antiviral activity against Human immunodeficiency virus 1 NL4-3 infected in human MT4 cells assessed as reduction in virus-induced cytopathogenicity measured after 5 days by MTT assay; format: functional, organism-based; settings: Human immunodeficiency virus 1, NL4-3, MT4, 120 h
[2] = Cytotoxicity against Human immunodeficiency virus 1 NL4-3 infected in human MT4 cells assessed as reduction in cell viability measured after 5 days by MTT assay; format: cell-based; settings: MT4 cells infected with HIV-1 NL4-3, time 5 day
[3] = Cytotoxicity against Human immunodeficiency virus 1 NLAD8 infected in human PM1 cells expressing CCR5 assessed as cell viability measured after 5 days by MTT assay; format: cell-based; settings: PM1 cells expressing CCR5 infected with HIV-1 NLAD8, time 5 day
[4] = tested on: Human immunodeficiency virus 1; test: Antiviral activity against Human immunodeficiency virus 1 NLAD-8 infected in human PM1 cells expressing CCR5 assessed as reduction in virus-induced cytopathogenicity measured after 5 days by MTT assay; format: functional, organism-based; settings: Human immunodeficiency virus 1, NLAD-8, PM1, 120 h

Row | Compound | EC50 [1] | CC50 at 120 h [2] | CC50 at 120 h [3] | EC50 [4]
1 | COC[C@@H](c1ccc(C(F)(F)F)cc1)N1CCN(C2(C)CCN(C(=O)c3c(C)ncnc3C)CC2)C[C@@H]1C [VICRIVIROC] | > 5 µM | > 5 µM | > 5 µM | 0.014 µM
2 | CC[C@H](C)[C@H](NC(C)=O)C(=O)N[C@H](C(=O)N[C@@H](CCCNC(=N)N)C(=O)N[C@@H](CCSC)C(=O)N[C@@H](Cc1ccc(O)cc1)C(=O)N[C@@H](CO)C(=O)N1CCC[C@H]1C(=O)N[C@H](C(=O)N[C@@H](CO)C(=O)N[C@H](C(=O)N[C@@H](CC(C)C)C(=O)N[C@@H](CC(=O)O)C(=O)N[C@H](C(=O)N[C@@H](CCCNC(=N)N)C(=O)N[C@@H](CCC(N)=O)C(=O)NCC(=O)N[C@@H](CSCC(=O)N[C@@H](CCCNC(=N)N)C(=O)N[C@@H](CCCNC(=N)N)C(=O)N[C@@H](CCCNC(=N)N)C(=O)N[C@@H](CCCNC(=N)N)C(=O)N[C@@H](CCCNC(=N)N)C(=O)N[C@@H](CCCNC(=N)N)C(=O)N[C@@H](CCCNC(=N)N)C(=O)N[C@@H](CCCNC(=N)N)C(N)=O)C(N)=O)[C@@H](C)CC)[C@@H](C)CC)[C@@H](C)O)C(C)C | 4.6 µM | 9.3 µM | 18 µM | 1.2 µM
3 | CC[C@H](C)[C@H](NC(C)=O)C(=O)N[C@H](C(=O)N[C@@H](CCCNC(=N)N)C(=O)N[C@@H](CCSC)C(=O)N[C@@H](Cc1ccc(O)cc1)C(=O)N[C@@H](CO)C(=O)N1CCC[C@H]1C(=O)N[C@H](C(=O)N[C@@H](COP(=O)(O)O)C(=O)N[C@H](C(=O)N[C@@H](CC(C)C)C(=O)N[C@@H](CC(=O)O)C(=O)N[C@H](C(=O)N[C@@H](CCCNC(=N)N)C(=O)N[C@@H](CCC(N)=O)C(=O)NCC(=O)N[C@@H](CSCC(=O)N[C@@H](CCCNC(=N)N)C(=O)N[C@@H](CCCNC(=N)N)C(=O)N[C@@H](CCCNC(=N)N)C(=O)N[C@@H](CCCNC(=N)N)C(=O)N[C@@H](CCCNC(=N)N)C(=O)N[C@@H](CCCNC(=N)N)C(=O)N[C@@H](CCCNC(=N)N)C(=O)N[C@@H](CCCNC(=N)N)C(N)=O)C(N)=O)[C@@H](C)CC)[C@@H](C)CC)[C@@H](C)O)C(C)C | > 44 µM | 44 µM | > 50 µM | > 50 µM
4 | c1cc(CN2CCCNCCNCCCNCC2)ccc1CN1CCCNCCNCCCNCC1 [PLERIXAFOR] | 0.035 µM | > 50 µM | > 50 µM | > 50 µM
5 | CC[C@H](C)[C@H](NC(C)=O)C(=O)N[C@H](C(=O)N[C@@H](CCCNC(=N)N)C(=O)N[C@@H](CCSC)C(=O)N[C@@H](Cc1ccc(O)cc1)C(=O)N[C@@H](CO)C(=O)N1CCC[C@H]1C(=O)N[C@H](C(=O)N[C@@H](CC(F)(F)P(=O)(O)O)C(=O)N[C@H](C(=O)N[C@@H](CC(C)C)C(=O)N[C@@H](CC(=O)O)C(=O)N[C@H](C(=O)N[C@@H](CCCNC(=N)N)C(=O)N[C@@H](CCC(N)=O)C(=O)NCC(=O)N[C@@H](CSCC(=O)N[C@@H](CCCNC(=N)N)C(=O)N[C@@H](CCCNC(=N)N)C(=O)N[C@@H](CCCNC(=N)N)C(=O)N[C@@H](CCCNC(=N)N)C(=O)N[C@@H](CCCNC(=N)N)C(=O)N[C@@H](CCCNC(=N)N)C(=O)N[C@@H](CCCNC(=N)N)C(=O)N[C@@H](CCCNC(=N)N)C(N)=O)C(N)=O)[C@@H](C)CC)[C@@H](C)CC)[C@@H](C)O)C(C)C | > 50 µM | > 50 µM | > 50 µM | > 50 µM
6 | Cc1cn([C@H]2C[C@H](N=[N+]=[N-])[C@@H](CO)O2)c(=O)[nH]c1=O [ZIDOVUDINE] | 0.043 µM | > 50 µM | > 100 µM | 0.3 µM
7 | CC[C@H](C)[C@H](NC(C)=O)C(=O)N[C@H](C(=O)N[C@@H](CCCNC(=N)N)C(=O)N[C@@H](CCSC)C(=O)N[C@@H](Cc1ccc(O)cc1)C(=O)N[C@@H](CO)C(=O)N1CCC[C@H]1C(=O)N[C@H](C(=O)N[C@@H](CCC(=O)O)C(=O)N[C@H](C(=O)N[C@@H](CC(C)C)C(=O)N[C@@H](CC(=O)O)C(=O)N[C@H](C(=O)N[C@@H](CCCNC(=N)N)C(=O)N[C@@H](CCC(N)=O)C(=O)NCC(=O)N[C@@H](CSCC(=O)N[C@@H](CCCNC(=N)N)C(=O)N[C@@H](CCCNC(=N)N)C(=O)N[C@@H](CCCNC(=N)N)C(=O)N[C@@H](CCCNC(=N)N)C(=O)N[C@@H](CCCNC(=N)N)C(=O)N[C@@H](CCCNC(=N)N)C(=O)N[C@@H](CCCNC(=N)N)C(=O)N[C@@H](CCCNC(=N)N)C(N)=O)C(N)=O)[C@@H](C)CC)[C@@H](C)CC)[C@@H](C)O)C(C)C | > 31 µM | 31 µM | > 50 µM | > 50 µM
